Measured values reported in ChEMBL document CHEMBL3352708, “Discovery of oxazole and triazole derivatives as potent and selective S1P(1) agonists through pharmacophore-guided design” (Eur J Med Chem, 2014).

Tests used:
Rattus norvegicus [1] = organism: Rattus norvegicus; settings: in vivo, po, 3 mg/kg
in vivo [2] = settings: Sprague-Dawley, rat, po, 3 mg/kg
Rattus norvegicus [3] = organism: Rattus norvegicus; settings: in vivo, po, 3 mg/kg; remark: listed apart in the source
in vivo [4] = settings: Sprague-Dawley, rat, po, 3 mg/kg; remark: listed apart in the source
Rattus norvegicus [5] = organism: Rattus norvegicus; settings: in vivo, po, 3 mg/kg; remark: listed apart in the source
in vivo [6] = settings: Sprague-Dawley, rat, po, 3 mg/kg; remark: listed apart in the source
in vivo [7] = settings: Sprague-Dawley, rat, po, 3 mg/kg; remark: listed apart in the source
in vivo [8] = settings: Sprague-Dawley, rat, plasma, po, 3 mg/kg
in vivo [9] = settings: Sprague-Dawley, rat, po, 3 mg/kg; remark: listed apart in the source

Structure (SMILES)	Vss/F (Rattus norvegicus [1]) [L/kg]	Cmax (in vivo [2]) [ng/mL]	t1/2 (Rattus norvegicus [3]) [h]	Tmax (in vivo [4]) [h]	AUCt (Rattus norvegicus [5]) [ng·h/mL]	half-life (in vivo [6]) [h]	Vd/F (in vivo [7]) [L/kg]	AUC(0-t) (in vivo [8]) [ng·h/mL]	CL/F (in vivo [9]) [mL/min/kg]
Cl.NC(CO)(CO)CCc1ccc(-c2coc(Cc3ccc(Cl)cc3)n2)cc1	–	109	–	4	–	21.1	44.1	1700	25
COc1ccc(-c2nc(-c3ccc(CCC(N)(CO)CO)cc3)co2)cc1.Cl	–	9.51	–	4.7	–	5.2	300	73.4	692
Cl.NC(CO)(CO)CCc1ccc(-c2coc(-c3ccc(Cl)cc3)n2)cc1	–	28.5	–	6.7	–	18.8	60	900	36.7

Now from value to molecule:

Vss/F (Rattus norvegicus [1]) [L/kg]	Cmax (in vivo [2]) [ng/mL]	t1/2 (Rattus norvegicus [3]) [h]	Tmax (in vivo [4]) [h]	AUCt (Rattus norvegicus [5]) [ng·h/mL]	half-life (in vivo [6]) [h]	Vd/F (in vivo [7]) [L/kg]	AUC(0-t) (in vivo [8]) [ng·h/mL]	CL/F (in vivo [9]) [mL/min/kg]	Structure (SMILES)
17.2	385	25.2	6	4910	–	–	–	–	CCCCCCCCc1ccc(CCC(N)(CO)COP(=O)(O)O)cc1 (stereo not drawn)
208	13.2	18.9	8.4	319	–	–	–	–	CCCCCCCCc1ccc(CCC(N)(CO)CO)cc1 [FINGOLIMOD]
